Assay: The assay uses purified baculovirus-expressed GST-VEGFR2 interacting with biotinylated peptide substrates. HTRF is based on the proximity of europium cryptate (donor fluorophore)-labeled antiphosphotyrosine and streptavidin labeled with APC (allophycocyanin), which have been brought together by a binding reaction.
Conditions: pH 7.5

| IC50 [nM] | Compound |
| --- | --- |
| 5.6 | Cc1c2ccc(N(C)c3ccnc(Nc4cccc(S(N)(=O)=O)c4)n3)cc2nn1C [3-({4-[(2,3-dimethyl-2H-indazol-6-yl)(methyl)amino]pyrimidin-2-yl}amino)benzene-1-sulfonamide] |
| 0.6 | Cc1n[nH]c2cc(N(C)c3ccnc(Nc4cccc(S(N)(=O)=O)c4)n3)ccc12 [3-({4-[methyl(3-methyl-1H-indazol-6-yl)amino]pyrimidin-2-yl}amino)benzene-1-sulfonamide] |
| 7.6 | CN(c1ccc2cn(C)nc2c1)c1ccnc(Nc2cccc(S(N)(=O)=O)c2)n1 [3-({4-[methyl(2-methyl-2H-indazol-6-yl)amino]pyrimidin-2-yl}amino)benzene-1-sulfonamide] |
| 36 | Cc1nn(C)c2cc(N(C)c3ccnc(Nc4cccc(S(N)(=O)=O)c4)n3)ccc12 [3-({4-[(1,3-dimethyl-1H-indazol-6-yl)(methyl)amino]pyrimidin-2-yl}amino)benzene-1-sulfonamide] |
| 17 | Cc1nc2cc(N(C)c3ccnc(Nc4cccc(S(N)(=O)=O)c4)n3)ccc2n1C [3-({4-[(1,2-dimethyl-1H-1,3-benzodiazol-5-yl)(methyl)amino]pyrimidin-2-yl}amino)benzene-1-sulfonamide] |
| 63 | Cc1nc2ccc(N(C)c3ccnc(Nc4cccc(S(N)(=O)=O)c4)n3)cc2n1C [3-({4-[(1,2-dimethyl-1H-1,3-benzodiazol-6-yl)(methyl)amino]pyrimidin-2-yl}amino)benzene-1-sulfonamide] |
| 2.6 | Cc1c2ccc(N(C)c3ccnc(Nc4cccc(S(N)(=O)=O)c4)n3)cc2nn1Cc1ccccc1 [3-({4-[(2-benzyl-3-methyl-2H-indazol-6-yl)(methyl)amino]pyrimidin-2-yl}amino)benzene-1-sulfonamide] |
